# Where “and” joins values, the source holds several entries; their conditions need not be identical. Equal values may be shown once. Where a name gives a salt, the structure may show the parent alone.
# Assays:
# human ETA receptors = biological target: T1, human ETA receptors (Homo sapiens, UniProt P25101); assay: Endothelin binding inhibition, Binding Test #1: competition with 125I-ET-1 for ETA receptors on TE 671 cell membranes
# T1 construct: endogenous in cells; host or cells: TE 671 cells (ATCC HTB 139), membrane preparation
# T1 sequence (P25101 21-427): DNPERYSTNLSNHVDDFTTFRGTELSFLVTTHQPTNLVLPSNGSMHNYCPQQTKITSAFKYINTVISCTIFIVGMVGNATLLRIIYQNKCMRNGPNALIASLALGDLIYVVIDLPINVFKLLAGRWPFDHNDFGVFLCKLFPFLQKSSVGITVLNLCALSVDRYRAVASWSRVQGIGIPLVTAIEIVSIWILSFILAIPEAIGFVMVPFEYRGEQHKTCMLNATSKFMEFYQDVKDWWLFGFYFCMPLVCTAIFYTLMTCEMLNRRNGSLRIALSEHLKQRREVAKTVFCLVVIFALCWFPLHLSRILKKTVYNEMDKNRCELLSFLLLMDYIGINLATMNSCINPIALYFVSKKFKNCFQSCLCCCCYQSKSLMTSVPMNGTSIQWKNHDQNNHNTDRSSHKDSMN
# Protocol: (§1) Cells from multiple flasks were collected by scraping, pooled and centrifuged for 10 min at 190×g. The cells were resuspended in phosphate buffered saline (PBS) containing 10 mM EDTA using a Tenbroeck homogenizer. The suspension was centrifuged at 4° C. at 57,800×g for 15 min, the pellet was resuspended in 5 mL of buffer A (5 mM HEPES buffer, pH 7.4 containing aprotinin (100 KIU/mL)) and then frozen and thawed once. 5 mL of Buffer B (5 mM HEPES Buffer, pH 7.4 containing 10 mM MnCl2 and 0.001% deoxyribonuclease Type 1) was added, the suspension mixed by inversion and then incubated at 37° C. for 30 minutes. The mixture was centrifuged at 57,800×g as described above, the pellet washed twice with buffer A and then resuspended in buffer C (30 mM HEPES buffer, pH 7.4 containing aprotinin (100 KIU/mL) to give a final protein concentration of 2 mg/mL and stored at −70° C. until use.
# The membrane suspension (50 μL), containing up to 8 μg of membrane protein, was added to each of (A), (B), or (C). […] Alternatively, the incubation was conducted at 24° C.
# The supernatant, containing unbound radioactivity, was decanted and the pellet counted on a Genesys multiwell gamma counter. The degree of inhibition of binding (D) was calculated according to the following equation: [formula]
# Each test was generally performed in triplicate.
# human ETB receptor = biological target: T2, human ETB receptor (Homo sapiens, UniProt P24530); assay: Endothelin binding inhibition, Binding Test #2: competition with 125I-ET-1 for ETB receptors on transfected COS7 cell membranes
# T2 construct: expressed in transfected cells; host or cells: COS7 cells
# T2 sequence (P24530 27-442): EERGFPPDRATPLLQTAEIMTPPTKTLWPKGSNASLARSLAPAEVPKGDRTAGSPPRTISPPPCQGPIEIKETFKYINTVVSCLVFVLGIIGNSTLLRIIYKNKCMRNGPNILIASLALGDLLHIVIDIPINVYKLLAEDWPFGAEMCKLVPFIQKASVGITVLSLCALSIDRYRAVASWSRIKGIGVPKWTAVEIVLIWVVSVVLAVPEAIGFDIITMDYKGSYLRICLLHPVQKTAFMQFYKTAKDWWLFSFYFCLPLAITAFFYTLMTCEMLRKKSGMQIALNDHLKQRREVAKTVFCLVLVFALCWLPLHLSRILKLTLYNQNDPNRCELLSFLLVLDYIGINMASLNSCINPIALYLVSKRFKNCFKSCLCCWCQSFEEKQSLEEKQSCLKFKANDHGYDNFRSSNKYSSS
# Text: Compounds that are potential endothelin antagonists are identified by testing their ability to compete with ^125I-labeled ET-1 for binding to human ETA receptors or ETB receptors present on isolated cell membranes. The effectiveness of the test compound as an antagonist or agonist of the biological tissue response of endothelin can also be assessed by measuring the effect on endothelin induced contraction of isolated rat thoracic aortic rings. The ability of the compounds to act as antagonists or agonists for ETB receptors can be assess by testing the ability of the compounds are to inhibit endothelin-1 induced prostacyclin release from cultured bovine aortic endothelial cells.
# COS7 cells were transfected with DNA encoding the ETB receptor, The resulting cells, which express the human ETB receptor, were grown to confluence in T-150 flasks. Membrane was prepared as described above. The binding assay was performed as described above using the membrane preparation diluted with binding buffer to a concentration of 1 μg/50 μL.
# as §1, with “Briefly, the COS7 cells, described above, that had been transfected with DNA encoding the ETB receptor and express the human ETB receptor on their surfaces were grown to confluence in T-175 flasks. Cells” for “Cells”, “C.” for “C. at”, “once. Five” for “once. 5”, “2 mg/mL.” for “2 mg/mL and stored at −70° C. until use.”
# The binding assay was performed as described above using the membrane preparation diluted to give 1 μg/50 μL of binding buffer.
# [1] = incubation at 24° C. (values marked †)
# [2] = incubation at 4° C. (values without †)
Compound,IC50 (human ETA receptors; [1]),IC50 (human ETB receptor; [1]) [nM],further results
"3-[N-(Benzo-2,1,3-thiadiazol-5-yl)aminosulfonyl]thiophene-2-carboxylic acid, 3-cyanomethyl-2,4,6-trimethylanilide",0.66 nM,9550,
"Cc1cc(C)c(CNC(=O)c2sccc2S(=O)(=O)Nc2onc(C)c2Cl)c(C)c1CC#N [N-4-chloro-3-methyl-5-isoxazolyl)-2-(3-cyanomethyl-2,4,6-trimethylbenzylaminocarbonyl)thiophene-3-sulfonamide]",531 nM,81500,
"COc1cccc(NCc2sccc2S(=O)(=O)Nc2onc(C)c2C)c1 [N-(3,4-dimethyl-5-isoxazolyl))-2-[(3-methoxyanilino)methyl]thiophene-3-sulfonamide]",933 nM,7700,IC50 (human ETA receptors; [2]): 214 nM; IC50 (human ETB receptor; [2]): 5340 nM
"Cc1noc(NS(=O)(=O)c2sccc2C(=O)Nc2ccccc2)c1C [N-(3,4-dimethyl-5-isoxazolyl))-3-(phenylaminocarbonyl)thiophene-2-sulfonamide]",,,IC50 (human ETA receptors; [2]): 163 nM; IC50 (human ETB receptor; [2]): > 100000 nM
"Cc1ccc(CC(=O)c2sccc2S(=O)(=O)Nc2onc(C)c2C)c(C)c1 [N-(3,4-dimethyl-5-isoxazolyl)-2-(2,4-dimethylphenylacetyl)thiophene-3-sulfonamide]",2.7 nM,17400,
"Cc1noc(NS(=O)(=O)c2ccsc2C(=O)Oc2ccc3c(c2)OCO3)c1C [N-(3,4-dimethyl-5-isoxazolyl)-2-[3,4-(methylenedioxy)phenoxycarbonyl]thiophene-3-sulfonamide]",,> 50000,
"COc1ccc(OC(=O)c2sccc2S(=O)(=O)Nc2onc(C)c2C)cc1 [N-(3,4-dimethyl-5-isoxazolyl)-2-[(4-methoxylphenoxy)carbonyl]thiophene-3-sulfonamide]",5880 nM and 2500 nM,,
"CC(=O)c1cc2c(cc1NC(=O)c1sccc1S(=O)(=O)Nc1onc(C)c1C)OCO2 [N-(3,4-dimethyl-5-isoxazolyl)-2-{[2-acetyl-4,5-(methylenedioxy)phenyl]aminocarbonyl}thiophene-3-sulfonamide]",32 nM,,
Cc1noc(NS(=O)(=O)c2ccsc2C(N)=O)c1Br [N-(4-bromo-3-methyl-5-isoxazolyl)-2-(aminocarbonyl)thiophene-3-sulfonamide],840 nM,,
"Cc1noc(NS(=O)(=O)c2ccsc2C(=O)c2ccc3c(c2)OCO3)c1Br [N-(4-bromo-3-methyl-5-isoxazolyl)-2-[(3,4-methylenedioxy)benzoyl]thiophene-3-sulfonamide]",,15000,
"Cc1noc(NS(=O)(=O)c2ccsc2CCc2ccc3c(c2)OCO3)c1Br [N-(4-bromo-3-methyl-5-isoxazolyl)-2-[(3,4-methylenedioxy)phenethyl]thiophene-3-sulfonamide]",210 nM,,
Cc1ccc(OC(=O)c2sccc2S(=O)(=O)Nc2onc(C)c2Br)cc1 [N-(4-bromo-3-methyl-5-isoxazolyl)-2-[(4-methylphenoxy)carbonyl]thiophene-3-sulfonamide],,9700,
"Cc1noc(NS(=O)(=O)c2ccsc2COc2ccc3c(c2)OCO3)c1Br [N-(4-bromo-3-methyl-5-isoxazolyl)-2-{[3,4-(methylenedioxy)phenoxy]methyl}thiophene-3-sulfonamide]",,6610,
COc1cccc(-c2ccsc2S(=O)(=O)Nc2onc(C)c2Br)c1 [N-(4-bromo-3-methyl-5-isoxazolyl)-3-(3-methoxyphenyl)thiophene-2-sulfonamide],334 nM,,
"CC(=O)c1cc2c(cc1NC(=O)c1sccc1S(=O)(=O)Nc1onc(C)c1Cl)OCO2 [N-(4-chloro-3-methyl-5-isoxazolyl)2-{[2-acetyl-4,5-(methylenedioxy)phenyl]aminocarbonyl}thiophene-3-sulfonamide]",,31600,
"Cc1noc(NS(=O)(=O)c2ccsc2C(=O)Nc2cc3c(cc2C(=O)O)OCO3)c1Cl [N-(4-chloro-3-methyl-5-isoxazolyl)2-{[2-carboxyl-4,5-(methylenedioxy)phenyl]aminocarbonyl}thiophene-3-sulfonamide]",1430 nM,,
"Cc1cc(C)c(CNC(=O)c2sccc2S(=O)(=O)Nc2onc(C)c2Cl)c(C)c1 [N-(4-chloro-3-methyl-5-isoxazolyl)-2-(2,4,6-trimethylbenzylaminocarbonyl)thiophene-3-sulfonamide]",,69200,
"Cc1cc(C)c(NC(=O)c2sccc2S(=O)(=O)Nc2onc(C)c2Cl)c(C(N)=O)c1 [N-(4-chloro-3-methyl-5-isoxazolyl)-2-(2-carbamoyl-4,6-dimethylphenylaminocarbonyl)thiophene-3-sulfonamide]",,11900,
"Cc1cc(C)c(NC(=O)c2sccc2S(=O)(=O)Nc2onc(C)c2Cl)c(C)c1CN(C)C [N-(4-chloro-3-methyl-5-isoxazolyl)-2-(3-dimethylaminomethyl-2,4,6-trimethylphenylaminocarbonyl)thiophene-3-sulfonamide, trifluoroacetic acid salt]",13.4 nM,,
"Cc1cc2c(cc1C(CC(=O)O)C(=O)c1sccc1S(=O)(=O)Nc1onc(C)c1Cl)OCO2 (stereo not drawn) [N-(4-chloro-3-methyl-5-isoxazolyl)-2-(α-carboxylmethyl-2-methyl-4,5-(methylenedioxy)phenylacetyl)thiophene-3-sulfonamide]",81.1 nM,,
"Cc1cc2c(cc1C(C)C(=O)c1sccc1S(=O)(=O)Nc1onc(C)c1Cl)OCO2 (stereo not drawn) [N-(4-chloro-3-methyl-5-isoxazolyl)-2-(α-methyl-2-methyl-4,5-(methylenedioxy)phenylacetyl)thiophene-3-sulfonamide]",85.3 nM,,
Cc1ccc(NC(=O)c2sccc2S(=O)(=O)Nc2onc(C)c2Cl)c(O)c1 [N-(4-chloro-3-methyl-5-isoxazolyl)-2-[2-hydroxy-4-methylphenyl)aminocarbonyl]thiophene-3-sulfonamide],6 nM,,
"Cc1nnc(NC(=O)c2sccc2S(=O)(=O)Nc2onc(C)c2Cl)s1 [N-(4-chloro-3-methyl-5-isoxazolyl)-2-[(2-methyl-1,3,4-thiadiazol-5-yl)aminocarbonyl]thiophene-3-sulfonamide]",130 nM,,
"COC(=O)c1cc(OC)c(OC)cc1NC(=O)c1sccc1S(=O)(=O)Nc1onc(C)c1Cl [N-(4-chloro-3-methyl-5-isoxazolyl)-2-[(4,5-dimethoxy-2-methoxycarbonylphenyl)aminocarbonyl]thiophene-3-sulfonamide]",550 nM,,
Cc1noc(NS(=O)(=O)c2ccsc2C(=O)OC2CCOCC2)c1Cl [N-(4-chloro-3-methyl-5-isoxazolyl)-2-[(4-oxacyclohexyl)oxycarbonyl]thiophene-3-sulfonamide],1370 nM,,
